This note sets out measurements from PubChem BioAssay AID1259407 (Chemical Carcinogenesis Research Information System (CCRIS), 2018).

The test system of this data set is CCRIS mutagenicity, Ames/micronucleus/aberration tests. As to the kind of experiment: CCRIS mutagenicity studies.
Setting [1] is: Test System: AMES SALMONELLA TYPHIMURIUM, Strain/Indicator: TA98, Metabolic Activation: NONE, Method: PREINCUBATION

Molecules are shown by their SMILES. Activity calls are given as the source filed them. No rule for the calls is given here.

As for `Nc1ccc2nc3ccc(N)cc3nc2c1`, the mutagenic call by setting is: under setting [1], “inactive; negative”; (Test System: AMES SALMONELLA TYPHIMURIUM, Strain/Indicator: TA98, Metabolic Activation: RAT, LIVER, S-9, PCB, Method: PREINCUBATION) “active; positive”.
Take `c1ccc2c(c1)ccc1ncccc12`: the mutagenic call is, setting by setting: (End Point: IN VITRO CHROMOSOMAL ABERRATIONS, Test System: CHL CELLS, Metabolic Activation: RAT, LIVER, S-9, SODIUM PHENOBARBITAL AND 5,6-BENZOFLAVONE) “active; positive (structural changes)”; (End Point: IN VITRO MICRONUCLEUS, Test System: CHL/IU CELLS, Metabolic Activation: NONE) “active; positive”; (Test System: AMES SALMONELLA TYPHIMURIUM, Strain/Indicator: TA98, Metabolic Activation: RAT, LIVER, S-9, AROCLOR 1254, Method: STANDARD PLATE) “active; positive”; (Test System: AMES SALMONELLA TYPHIMURIUM, Strain/Indicator: TA100, Metabolic Activation: RAT, LIVER, S-9, AROCLOR 1254, Method: PREINCUBATION) “active; positive”; (Test System: AMES SALMONELLA TYPHIMURIUM, Strain/Indicator: TA100, Metabolic Activation: RAT, LIVER, S-9, AROCLOR 1254, Method: STANDARD PLATE) “active; positive”; (Test System: AMES SALMONELLA TYPHIMURIUM, Strain/Indicator: TA100, Metabolic Activation: RAT, LIVER, S-9, PHENOBARBITAL AND 5,6-BENZOFLAVONE, Method: PREINCUBATION) “active; positive”.
In the case of `CCC(CO)[N+](=O)[O-]` (stereo not given), the mutagenic call is, setting by setting: (Test System: AMES SALMONELLA TYPHIMURIUM, Strain/Indicator: TA97, Metabolic Activation: HAMSTER, LIVER, S-9, AROCLOR 1254 (10%), Method: PREINCUBATION) “inactive; negative”; (Test System: AMES SALMONELLA TYPHIMURIUM, Strain/Indicator: TA97, Metabolic Activation: HAMSTER, LIVER, S-9, AROCLOR 1254 (30%), Method: PREINCUBATION) “inactive; negative”; (Test System: AMES SALMONELLA TYPHIMURIUM, Strain/Indicator: TA97, Metabolic Activation: NONE, Method: PREINCUBATION) “inactive; negative”; (Test System: AMES SALMONELLA TYPHIMURIUM, Strain/Indicator: TA97, Metabolic Activation: RAT, LIVER, S-9, AROCLOR 1254 (10%), Method: PREINCUBATION) “inactive; negative”; (Test System: AMES SALMONELLA TYPHIMURIUM, Strain/Indicator: TA97, Metabolic Activation: RAT, LIVER, S-9, AROCLOR 1254 (30%), Method: PREINCUBATION) “inactive; negative”; (Test System: AMES SALMONELLA TYPHIMURIUM, Strain/Indicator: TA98, Metabolic Activation: HAMSTER, LIVER, S-9, AROCLOR 1254 (10%), Method: PREINCUBATION) “inactive; negative”. Further, the mutagenic call was “inactive; negative” (Test System: AMES SALMONELLA TYPHIMURIUM, Strain/Indicator: TA98, Metabolic Activation: HAMSTER, LIVER, S-9, AROCLOR 1254 (30%), Method: PREINCUBATION); “inactive; negative” under setting [1]; “inactive; negative” (Test System: AMES SALMONELLA TYPHIMURIUM, Strain/Indicator: TA98, Metabolic Activation: RAT, LIVER, S-9, AROCLOR 1254 (10%), Method: PREINCUBATION); “inactive; negative” (Test System: AMES SALMONELLA TYPHIMURIUM, Strain/Indicator: TA98, Metabolic Activation: RAT, LIVER, S-9, AROCLOR 1254 (30%), Method: PREINCUBATION); “inactive; negative” (Test System: AMES SALMONELLA TYPHIMURIUM, Strain/Indicator: TA98, Metabolic Activation: RAT, LIVER, S-9, AROCLOR, Method: PREINCUBATION); “inactive; negative” (Test System: AMES SALMONELLA TYPHIMURIUM, Strain/Indicator: TA100, Metabolic Activation: HAMSTER, LIVER, S-9, AROCLOR 1254 (10%), Method: PREINCUBATION). In addition, the mutagenic call (Test System: AMES SALMONELLA TYPHIMURIUM, Strain/Indicator: TA100, Metabolic Activation: HAMSTER, LIVER, S-9, AROCLOR 1254 (30%), Method: PREINCUBATION) was “inactive; negative”; the mutagenic call (Test System: AMES SALMONELLA TYPHIMURIUM, Strain/Indicator: TA100, Metabolic Activation: NONE, Method: PREINCUBATION) is “inactive; negative”; the mutagenic call (Test System: AMES SALMONELLA TYPHIMURIUM, Strain/Indicator: TA100, Metabolic Activation: RAT, LIVER, S-9, AROCLOR 1254 (10%), Method: PREINCUBATION) is “inactive; negative”; the mutagenic call (Test System: AMES SALMONELLA TYPHIMURIUM, Strain/Indicator: TA100, Metabolic Activation: RAT, LIVER, S-9, AROCLOR 1254 (30%), Method: PREINCUBATION) is “inactive; negative”; the mutagenic call (Test System: AMES SALMONELLA TYPHIMURIUM, Strain/Indicator: TA100, Metabolic Activation: RAT, LIVER, S-9, AROCLOR, Method: PREINCUBATION) is “inactive; negative”; the mutagenic call (Test System: AMES SALMONELLA TYPHIMURIUM, Strain/Indicator: TA102, Metabolic Activation: NONE, Method: PREINCUBATION) was “inactive; negative”. For the same molecule, the mutagenic call runs as follows: (Test System: AMES SALMONELLA TYPHIMURIUM, Strain/Indicator: TA102, Metabolic Activation: RAT, LIVER, S-9, AROCLOR, Method: PREINCUBATION) “inactive; negative”; (Test System: AMES SALMONELLA TYPHIMURIUM, Strain/Indicator: TA1535, Metabolic Activation: HAMSTER, LIVER, S-9, AROCLOR 1254 (10%), Method: PREINCUBATION) “inactive; negative”; (Test System: AMES SALMONELLA TYPHIMURIUM, Strain/Indicator: TA1535, Metabolic Activation: HAMSTER, LIVER, S-9, AROCLOR 1254 (30%), Method: PREINCUBATION) “inactive; negative”; (Test System: AMES SALMONELLA TYPHIMURIUM, Strain/Indicator: TA1535, Metabolic Activation: NONE, Method: PREINCUBATION) “inactive; negative”; (Test System: AMES SALMONELLA TYPHIMURIUM, Strain/Indicator: TA1535, Metabolic Activation: RAT, LIVER, S-9, AROCLOR 1254 (10%), Method: PREINCUBATION) “inactive; negative”; (Test System: AMES SALMONELLA TYPHIMURIUM, Strain/Indicator: TA1535, Metabolic Activation: RAT, LIVER, S-9, AROCLOR 1254 (30%), Method: PREINCUBATION) “inactive; negative”. The mutagenic call (Test System: AMES SALMONELLA TYPHIMURIUM, Strain/Indicator: TA1537, Metabolic Activation: HAMSTER, LIVER, S-9, AROCLOR 1254 (30%), Method: PREINCUBATION) is “inactive; negative”; the mutagenic call (Test System: AMES SALMONELLA TYPHIMURIUM, Strain/Indicator: TA1537, Metabolic Activation: NONE, Method: PREINCUBATION) was “inactive; negative”; the mutagenic call (Test System: AMES SALMONELLA TYPHIMURIUM, Strain/Indicator: TA1537, Metabolic Activation: RAT, LIVER, S-9, AROCLOR 1254 (30%), Method: PREINCUBATION) was “inactive; negative”.
